Data on 8 molecules can be found in patent publication US8557839B2, “Fused ring azadecalin glucocorticoid receptor modulators” (Corcept Therapeutics, Inc., priority 2004, dated 2013).

The inhibition is the relative decrease from the control value, in per cent.

Test [1] has as its target T1, mineralocorticoid (MR) receptor (Homo sapiens, UniProt P08235).
T1 construct: containing endogenous mineralocorticoid-(MR) and progesterone (PR) receptors; endogenous in cells; host or cells: T47D/MMTV-5 (human breast carcinoma, stably carrying the pMAMneo-Luc reporter)
T1 sequence (P08235 1-984): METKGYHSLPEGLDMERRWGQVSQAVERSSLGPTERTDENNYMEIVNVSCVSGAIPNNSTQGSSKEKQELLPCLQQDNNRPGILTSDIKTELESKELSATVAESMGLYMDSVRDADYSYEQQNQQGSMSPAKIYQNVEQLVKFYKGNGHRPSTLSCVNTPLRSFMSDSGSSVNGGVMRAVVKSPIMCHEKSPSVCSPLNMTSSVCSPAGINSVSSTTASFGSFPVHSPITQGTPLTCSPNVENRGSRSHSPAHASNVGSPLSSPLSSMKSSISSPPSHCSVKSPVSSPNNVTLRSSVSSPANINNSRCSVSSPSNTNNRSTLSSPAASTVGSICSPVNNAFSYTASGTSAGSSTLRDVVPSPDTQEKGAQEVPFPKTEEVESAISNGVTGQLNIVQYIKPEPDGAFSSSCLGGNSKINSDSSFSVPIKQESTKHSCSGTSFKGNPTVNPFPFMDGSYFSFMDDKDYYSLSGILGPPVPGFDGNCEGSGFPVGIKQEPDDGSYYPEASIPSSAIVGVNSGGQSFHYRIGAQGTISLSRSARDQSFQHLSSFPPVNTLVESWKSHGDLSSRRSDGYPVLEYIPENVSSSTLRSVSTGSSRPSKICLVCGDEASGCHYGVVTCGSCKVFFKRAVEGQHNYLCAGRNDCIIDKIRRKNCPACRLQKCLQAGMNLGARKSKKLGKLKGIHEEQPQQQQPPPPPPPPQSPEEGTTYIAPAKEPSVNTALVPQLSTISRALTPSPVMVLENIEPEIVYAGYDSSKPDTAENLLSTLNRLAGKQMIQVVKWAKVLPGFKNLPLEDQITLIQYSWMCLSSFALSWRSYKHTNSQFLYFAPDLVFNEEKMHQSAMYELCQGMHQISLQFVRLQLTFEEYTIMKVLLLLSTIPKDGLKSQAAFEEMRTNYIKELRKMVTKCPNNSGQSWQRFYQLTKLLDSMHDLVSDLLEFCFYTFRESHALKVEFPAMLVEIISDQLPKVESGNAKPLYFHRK
Description: MR functional assay using T47D/MMTV-5 cells. Type of test: cell-based. The conditions noted are these: read-out: inhibition of the MR functional response. As for the experimental part: (§1) As for the SW 1353 cell line, T47D cells was transfected with the same pMAMneo-Luc plasmid, and stable lines selected with geneticin.
(§2) T47D/MMTV-5 cells were distributed in 96-well plates (100 μl) in RPMI1640 medium +10% Charcoal stripped FCS. The cells were incubated for 24 hrs in the CO2-oven. A volume of 100 μl of the compound dilutions in medium +agonist (500 nM aldost; 50 nM progest) were added, and the plates further incubated for another 24 hrs after which the luciferase expression was measured.

For test [2], the target named is T2, progesterone (PR) receptor (Homo sapiens, UniProt P06401).
T2 construct: containing endogenous mineralocorticoid-(MR) and progesterone (PR) receptors; endogenous in cells; host or cells: T47D/MMTV-5 (human breast carcinoma, stably carrying the pMAMneo-Luc reporter)
T2 sequence (P06401 1-933): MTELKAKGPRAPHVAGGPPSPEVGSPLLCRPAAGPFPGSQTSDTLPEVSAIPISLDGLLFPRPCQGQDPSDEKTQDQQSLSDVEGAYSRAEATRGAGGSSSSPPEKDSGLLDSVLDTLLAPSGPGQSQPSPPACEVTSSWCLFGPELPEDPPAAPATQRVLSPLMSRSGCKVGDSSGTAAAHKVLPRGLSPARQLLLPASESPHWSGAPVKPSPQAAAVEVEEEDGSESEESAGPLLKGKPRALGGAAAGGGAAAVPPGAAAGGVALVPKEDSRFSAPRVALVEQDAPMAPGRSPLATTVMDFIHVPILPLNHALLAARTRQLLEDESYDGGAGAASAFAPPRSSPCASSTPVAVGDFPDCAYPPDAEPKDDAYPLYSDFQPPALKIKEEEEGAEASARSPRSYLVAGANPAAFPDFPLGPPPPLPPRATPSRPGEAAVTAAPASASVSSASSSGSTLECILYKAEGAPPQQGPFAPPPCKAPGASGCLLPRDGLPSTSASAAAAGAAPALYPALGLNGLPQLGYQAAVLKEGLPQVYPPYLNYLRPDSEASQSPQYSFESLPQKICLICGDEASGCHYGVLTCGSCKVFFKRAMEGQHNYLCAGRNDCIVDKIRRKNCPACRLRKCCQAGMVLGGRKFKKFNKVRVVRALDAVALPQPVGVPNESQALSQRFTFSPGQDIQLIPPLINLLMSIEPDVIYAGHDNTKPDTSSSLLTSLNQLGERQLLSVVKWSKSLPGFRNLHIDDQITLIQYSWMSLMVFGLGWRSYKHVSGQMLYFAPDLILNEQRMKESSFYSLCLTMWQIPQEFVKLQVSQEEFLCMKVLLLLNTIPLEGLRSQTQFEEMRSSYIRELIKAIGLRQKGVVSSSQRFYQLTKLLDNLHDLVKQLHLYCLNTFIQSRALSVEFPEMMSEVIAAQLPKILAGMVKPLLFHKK
Description: PR functional assay using T47D/MMTV-5 cells. Type of test: cell-based. The conditions noted are these: read-out: inhibition of the PR agonist response. As for the experimental part: as §1, §2

Test [3] has as its target T3, glucocorticoid receptors (Homo sapiens, UniProt P04150).
T3 sequence (P04150 1-777): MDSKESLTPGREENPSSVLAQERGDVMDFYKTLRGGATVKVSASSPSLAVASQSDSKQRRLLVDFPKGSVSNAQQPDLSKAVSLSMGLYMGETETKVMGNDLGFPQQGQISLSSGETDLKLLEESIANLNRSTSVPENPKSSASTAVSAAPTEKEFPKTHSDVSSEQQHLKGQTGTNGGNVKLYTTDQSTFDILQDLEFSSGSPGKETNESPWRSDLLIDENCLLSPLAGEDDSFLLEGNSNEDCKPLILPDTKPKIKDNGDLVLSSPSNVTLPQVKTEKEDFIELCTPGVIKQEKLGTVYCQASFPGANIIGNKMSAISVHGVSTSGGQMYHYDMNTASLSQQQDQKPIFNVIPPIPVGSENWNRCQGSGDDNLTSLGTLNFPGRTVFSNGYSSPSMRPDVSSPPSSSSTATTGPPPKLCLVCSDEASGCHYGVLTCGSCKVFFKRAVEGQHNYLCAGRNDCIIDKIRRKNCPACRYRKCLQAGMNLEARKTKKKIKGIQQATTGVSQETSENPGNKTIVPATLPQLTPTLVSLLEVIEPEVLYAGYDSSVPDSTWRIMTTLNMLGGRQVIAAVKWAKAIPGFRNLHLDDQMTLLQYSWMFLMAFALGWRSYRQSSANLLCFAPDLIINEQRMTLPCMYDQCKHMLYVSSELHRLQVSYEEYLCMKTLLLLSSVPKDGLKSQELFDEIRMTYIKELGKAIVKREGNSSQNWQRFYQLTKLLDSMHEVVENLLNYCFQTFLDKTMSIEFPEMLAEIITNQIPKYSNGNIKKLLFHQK
Description: Glucocorticoid receptor binding displacement assay with 3H-dexamethasone. The arrangement: This GR was a full-length steroid hormone receptor; host or cells: recombinant baculovirus-infected insect cells.

Test [4] concerns the target T3, glucocorticoid receptors. As to the kind of experiment: GR functional assay using SW1353/MMTV-5 cells (dexamethasone-induced luciferase). Type of test: cell-based. Details: contains endogenous glucocorticoid receptors; endogenous in cells; host or cells: SW1353/MMTV-5 (human chondrosarcoma, stably carrying the pMAMneo-Luc reporter). The method in brief: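 Human chondrosarcoma line stably carrying firefly luciferase under an MMTV LTR glucocorticoid-responsive element, with endogenous GR. Cells were plated in 96-well plates and held 24 hrs in geneticin-free medium without CO2.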

Where [5] appears, read: Ki from IC50 by Cheng-Prusoff, 2.5 nM 3H-dexamethasone, read-out: GR Binding.

As for `CC(C)(C)c1ccc(S(=O)(=O)N2CCC3=Cc4c(cnn4-c4ccc(F)cc4)C[C@]3(C)C2)cc1` [Example 29, (S)-6-(4-tert-Butyl-benzenesulfonyl)-1-(4-fluoro-phenyl)-4a-methyl-4,4a,5,6,7,8-hexahydro-1H-1,2,6-triaza-cyclopenta[b]naphthalene], the inhibition at 3 µM worked out at 10% in test [1] and 8% in test [2].
For `CC(C)(C)c1ccc(S(=O)(=O)N2CCC3=Cc4[nH]ncc4CC3(Cc3ccccc3)C2)cc1` (stereo not shown) [drawing 229], the Ki is under 10 nM on glucocorticoid receptors [3] (setting [5]) and 10 to 100 nM at glucocorticoid receptors [4] (SW1353/MMTV-5 cells, antagonism of 50 nM dexamethasone, luciferase, read-out: GR Functional).
For `CC(C)(C)c1ccc(CN2CCC3=Cc4c(cnn4-c4ccc(F)cc4)CC3(Cc3ccc(F)cc3)C2)cn1` (stereo not shown), the Ki at glucocorticoid receptors [3] (setting [5]) is under 10 nM; at glucocorticoid receptors [4] (read-out: GR Functional), over 100 nM.
On to `CN(C)C(=O)CN1CCC2=Cc3c(cnn3-c3ccc(F)cc3)CC2(Cc2ccccc2)C1` (stereo not shown), for which the Ki on glucocorticoid receptors [3] (setting [5]) and on glucocorticoid receptors [4] (read-out: GR Functional) was over 100 nM in each case.
Turning to `C[C@]12Cc3cnn(-c4ccc(F)cc4)c3C=C1CCN(S(=O)(=O)N1CCCCC1)C2`, the Ki at glucocorticoid receptors [3] (setting [5]) is 10 to 100 nM; at glucocorticoid receptors [4] (read-out: GR Functional) it was over 100 nM.
Regarding `CCCN1CCC2=Cc3c(cnn3-c3ccc(F)cc3)CC2(Cc2ccc(F)cc2)C1` (stereo not shown), the Ki at glucocorticoid receptors [3] (setting [5]) is 10 to 100 nM; on glucocorticoid receptors [4] (read-out: GR Functional), over 100 nM.
In the case of `CC(C)(C)c1ccc(S(=O)(=O)N2CCC3=Cc4c(cnn4Cc4ccccc4)CC3(Cc3ccccc3)C2)cc1` (stereo not shown) [drawing 237], the Ki was under 10 nM at glucocorticoid receptors [3] (setting [5]) and over 100 nM at glucocorticoid receptors [4] (read-out: GR Functional).
As to `CC(C)(C)c1ccc(S(=O)(=O)N2CCC3=Cc4c(cnn4-c4ccc(F)cc4)CC3(Cc3ccc(F)cc3)C2)cc1` (stereo not shown), the Ki at glucocorticoid receptors [3] is under 10 nM; at glucocorticoid receptors [4] it was 10 to 100 nM.
